Measured values published in PubChem BioAssay (NCI).
Values joined by “and” are separate entries in the source; they are usually repeats but may differ in a detail not shown here. Identical values can stand only once.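 The compound was tested at five concentrations on cells cultured in 96-well plates, with a 48-hour exposure period. At the GI50, growth is halved. TGI denotes the concentration required for complete inhibition of growth.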

How the values were obtained:
Experiment in all cases: NCI tumour cell line growth inhibition, 48 h
SK-OV-3 ovarian = system: SK-OV-3 ovarian
HOP-62 NSCLC = system: HOP-62 NSCLC
SK-MEL-2 melanoma = system: SK-MEL-2 melanoma
IGROV1 ovarian = system: IGROV1 ovarian
RXF 393 renal = system: RXF 393 renal
A498 renal = system: A498 renal
HOP-92 NSCLC = system: HOP-92 NSCLC
SK-MEL-28 melanoma = system: SK-MEL-28 melanoma
KM20L2 colon = system: KM20L2 colon
CCRF-CEM leukemia = system: CCRF-CEM leukemia
SNB-78 CNS = system: SNB-78 CNS
NCI/ADR-RES ovarian = system: NCI/ADR-RES ovarian
EKVX NSCLC = system: EKVX NSCLC
SW-620 colon = system: SW-620 colon
NCI-H23 lung = system: NCI-H23 lung
P388 leukemia = system: P388 leukemia
U251 CNS = system: U251 CNS
P388/ADR leukemia = system: P388/ADR leukemia
SK-MEL-5 melanoma = system: SK-MEL-5 melanoma
RPMI-8226 leukemia = system: RPMI-8226 leukemia
NCI-H226 lung = system: NCI-H226 lung
M19-MEL melanoma = system: M19-MEL melanoma
DMS 273 small cell lung = system: DMS 273 small cell lung
SNB-19 CNS = system: SNB-19 CNS
CAKI-1 renal = system: CAKI-1 renal
NCI-H522 lung = system: NCI-H522 lung
HCT-116 colon = system: HCT-116 colon
HCT-15 colon = system: HCT-15 colon
SN12C renal = system: SN12C renal
SF-295 CNS = system: SF-295 CNS
OVCAR-4 ovarian = system: OVCAR-4 ovarian
KM12 colon = system: KM12 colon
A549 NSCLC = system: A549 NSCLC
SN12K1 renal = system: SN12K1 renal
SF-268 CNS = system: SF-268 CNS
OVCAR-3 ovarian = system: OVCAR-3 ovarian
MOLT-4 leukemia = system: MOLT-4 leukemia
UACC-257 melanoma = system: UACC-257 melanoma
SF-539 CNS = system: SF-539 CNS
COLO 205 colon = system: COLO 205 colon
K-562 leukemia = system: K-562 leukemia
HL-60(TB) leukemia = system: HL-60(TB) leukemia
SNB-75 CNS = system: SNB-75 CNS
HT29 colon = system: HT29 colon
UO-31 renal = system: UO-31 renal
LOX IMVI melanoma = system: LOX IMVI melanoma
OVCAR-5 ovarian = system: OVCAR-5 ovarian
DMS 114 small cell lung = system: DMS 114 small cell lung
UACC-62 melanoma = system: UACC-62 melanoma
OVCAR-8 ovarian = system: OVCAR-8 ovarian
MCF7 breast = system: MCF7 breast
HOP-18 NSCLC = system: HOP-18 NSCLC
DLD-1 colon = system: DLD-1 colon
NCI-H460 lung = system: NCI-H460 lung
HCC-2998 colon = system: HCC-2998 colon

CC12CCC3C(CCC4=CC(O)CCC43C=O)C1(O)CCC2c1ccc(=O)oc1 (stereo unspecified)
GI50 (SK-OV-3 ovarian): 50 nM
TGI (SK-OV-3 ovarian): 40.4 nM and 71.3 nM
GI50 (HOP-62 NSCLC): 1.58 nM
TGI (HOP-62 NSCLC): 14.7 nM and 57.3 nM
GI50 (SK-MEL-2 melanoma): 50 nM
TGI (SK-MEL-2 melanoma): 48.3 nM and 81.5 nM
GI50 (IGROV1 ovarian): 50 nM
TGI (IGROV1 ovarian): 93.6 nM and 141 nM
GI50 (RXF 393 renal): 1.27 nM
TGI (RXF 393 renal): 8.01 nM
GI50 (A498 renal): 50 nM
TGI (A498 renal): 41.8 nM and 113 nM
TGI (HOP-92 NSCLC): 40.4 nM
GI50 (SK-MEL-28 melanoma): 7.66 nM
TGI (SK-MEL-28 melanoma): 140 nM and 104 nM
GI50 (KM20L2 colon): 50 nM
TGI (KM20L2 colon): 36.5 nM and 56.2 nM
GI50 (CCRF-CEM leukemia): 11.5 nM and 50 nM
TGI (CCRF-CEM leukemia): 129 nM and 523 nM
GI50 (SNB-78 CNS): 50 nM
TGI (SNB-78 CNS): 202 nM and 63.5 nM
GI50 (NCI/ADR-RES ovarian): 50 nM
TGI (NCI/ADR-RES ovarian): 196 nM and 53.3 nM
TGI (EKVX NSCLC): 59 nM
GI50 (SW-620 colon): 9.09 nM
TGI (SW-620 colon): 96.7 nM and 62 nM
TGI (NCI-H23 lung): 15.1 nM
GI50 (P388 leukemia): 80600 nM
GI50 (U251 CNS): 50 nM
TGI (U251 CNS): 29.2 nM and 64 nM
GI50 (P388/ADR leukemia): 89000 nM
TGI (SK-MEL-5 melanoma): 20.1 nM
GI50 (RPMI-8226 leukemia): 23.8 nM
TGI (RPMI-8226 leukemia): 237 nM and 273 nM
GI50 (NCI-H226 lung): 86.6 nM
TGI (NCI-H226 lung): 83.1 nM and 210 nM
GI50 (M19-MEL melanoma): 50 nM
TGI (M19-MEL melanoma): 72 nM and 61 nM
TGI (DMS 273 small cell lung): 22.8 nM
GI50 (SNB-19 CNS): 50 nM
TGI (SNB-19 CNS): 22.4 nM and 101 nM
GI50 (CAKI-1 renal): 8 nM
TGI (CAKI-1 renal): 62.7 nM
TGI (NCI-H522 lung): 7.41 nM
GI50 (HCT-116 colon): 4.53 nM
TGI (HCT-116 colon): 32.7 nM and 58.3 nM
GI50 (HCT-15 colon): 12.5 nM
TGI (HCT-15 colon): 107 nM and 62.2 nM
GI50 (SN12C renal): 50 nM
GI50 (SF-295 CNS): 50 nM
TGI (SF-295 CNS): 46.6 nM and 107 nM
TGI (OVCAR-4 ovarian): 25.3 nM
GI50 (KM12 colon): 50 nM
TGI (KM12 colon): 93.5 nM and 83.2 nM
GI50 (A549 NSCLC): 4.52 nM
TGI (A549 NSCLC): 20 nM
GI50 (SN12K1 renal): 7.53 nM
TGI (SN12K1 renal): 28.6 nM and 53.1 nM
GI50 (SF-268 CNS): 1.53 nM
TGI (SF-268 CNS): 15.4 nM
TGI (OVCAR-3 ovarian): 15.3 nM
GI50 (MOLT-4 leukemia): 12.9 nM
TGI (MOLT-4 leukemia): 40.1 nM
GI50 (UACC-257 melanoma): 50 nM
GI50 (SF-539 CNS): 50 nM
TGI (SF-539 CNS): 11.5 nM and 51.5 nM
GI50 (COLO 205 colon): 50 nM
TGI (COLO 205 colon): 59.6 nM and 90.9 nM
GI50 (K-562 leukemia): 27.4 nM
TGI (K-562 leukemia): 247 nM and 143 nM
GI50 (HL-60(TB) leukemia): 50 nM
GI50 (SNB-75 CNS): 50 nM
TGI (SNB-75 CNS): 54.4 nM and 52.3 nM
GI50 (HT29 colon): 66.7 nM
GI50 (UO-31 renal): 50 nM
TGI (UO-31 renal): 127 nM and 57 nM
GI50 (LOX IMVI melanoma): 50 nM
GI50 (OVCAR-5 ovarian): 5.11 nM
TGI (DMS 114 small cell lung): 9.96 nM
GI50 (UACC-62 melanoma): 9.32 nM
TGI (UACC-62 melanoma): 32.9 nM and 52.1 nM
GI50 (OVCAR-8 ovarian): 50 nM
TGI (OVCAR-8 ovarian): 53.2 nM and 52.6 nM
GI50 (MCF7 breast): 4.03 nM
TGI (MCF7 breast): 20.9 nM and 72.1 nM
TGI (HOP-18 NSCLC): 46.1 nM
GI50 (DLD-1 colon): 7.69 nM
TGI (DLD-1 colon): 57.1 nM
TGI (NCI-H460 lung): 13.1 nM
GI50 (HCC-2998 colon): 59.1 nM
TGI (HCC-2998 colon): 66.5 nM and 220 nM
